The values below come from patent US6916802B2, “Amino ceramide-like compounds and therapeutic methods of use” (Genzyme Corporation, priority 2002, dated 2005).

In series [1] the test system is 9L brain gliosarcoma cells. The series can be described thus: Tumor cell growth in vitro (sulforhodamine B), 9L. The series is classed as cell-based. To be noted: 9L; rounded off to one digit; read-out: Inhibition of tumor cell growth in vitro, IC50. As for the experimental part: (§1) Growth of cell lines. Comparisons of different inhibitors with regard to suppression of human cancer cell growth were made by the University of Michigan Cancer Center in vitro Drug Evaluation Core Laboratory. MCF-7 breast carcinoma cells, HT-29 colon adenocarcinoma cells, H-460 lung large cell carcinoma cells, and 9L brain gliosarcoma cells were grown in RPMI 1640 medium with 5% fetal bovine serum, 2 mM glutamine, 50 units/ml of penicillin, […] of streptomycin, and 0.1 mg/ml of neomycin. UMSCC-10A head and neck squamous carcinoma cells were grown in minimal essential medium with Earle salts and the same supplements. Medium components were from Sigma Chemical Co. Cells were plated in 96-well microtiter plates (1000 cells/well for H-460 and 9L cells, and 2000 cells/well for the other lines), and the test compounds were added 1 day later. The stock inhibitor solutions, 2 mM in 2 mM BSA, were diluted with different amounts of additional 2 mM BSA, then each solution was diluted 500-fold with growth medium to obtain the final concentrations indicated in the Figures and Tables.
(§2) Five days after plating the H-460 and 9L cells, or 6 days for the other lines, cell growth was evaluated by staining the adhering cells with sulforhodamine B and measuring the absorbance at 520 nm (Skehan, P. et al., “New Colorimetric Cytotoxicity Assay for Anticancer-Drug Screening,” J. Natl. Cancer Inst., 82:1107-1112 (1990)). The absorbance of the treated cultures is reported as percent of that of control cultures, to provide an estimate of the fraction of the cells that survived, or of inhibition of growth rate.

Series [2] has as its system MCF-7 breast carcinoma cells. The series can be described thus: Tumor cell growth in vitro (sulforhodamine B), MCF-7. To be noted: rounded off to one digit, read-out: Inhibition of tumor cell growth in vitro, IC50. It counts as cell-based, human. As for the experimental part:
as §1, §2

For series [3], the system named is HT-29 colon adenocarcinoma cells. The series can be described thus: Tumor cell growth in vitro (sulforhodamine B), HT-29. It counts as cell-based, human. The settings on record: rounded off to one digit, read-out: Inhibition of tumor cell growth in vitro, IC50. As for the experimental part: as §1, §2
The test system of series [4] is GlcCer synthase of MDCK cell homogenates. The series can be described thus: Inhibition of ceramide glucosyltransferase (GlcCer synthase) of MDCK cell homogenates. The series is classed as biochemical, canine. To be noted: for Inhibition at 5 μM: 5 μM inhibitor; for Inhibition at 5 μM / % Inhibition at 80 μM: triplicate ± SD, samples partly isomer mixtures; for % Inhibition at 80 μM: 80 μM inhibitor. As for the experimental part: Assay of sphingolipid enzymes. The inhibitors were evaluated for their effectiveness against the GlcCer synthase of MDCK cell homogenates by incubation in a thermostatted ultrasonic bath (Radin N. S. et al., “Ultrasonic Baths as Substitutes for Shaking Incubator Baths,” Enzyme, 45:67-70 (1991)) with octanoyl sphingosine and uridinediphospho[^3H]glucose (Shukla, G. S. et al., “Glucosylceramide Synthase of Mouse Kidney: Further Characterization and Improved Assay Method,” Arch. Biochem. Biophys., 283:372-378 (1990)). The lipoidal substrate (85 μg) was added in liposomes made from 0.57 mg dioleoylphosphatidylcholine and 0.1 mg of Na sulfatide. Confluent cells were washed, then homogenized with a micro-tip sonicator at 0° C. for 3×30 sec; ˜0.2 mg of protein was used in each assay tube. In the case of the aromatic inhibitors, the test compound was simply evaporated to dryness from solution in the incubation tube. […] The aliphatic inhibitors, which appeared to be less soluble in water, were added as part of the substrate liposomes.

For series [5] the following is noted: substituent of phenyl group; estimated from the Table in Hogberg et al.; cited from earlier work.
Series [6] concerns H-460 lung large cell carcinoma cells. The series can be described thus: Tumor cell growth in vitro (sulforhodamine B), H-460. To be noted: rounded off to one digit, read-out: Inhibition of tumor cell growth in vitro, IC50. It counts as cell-based, human. The protocol: as §1, §2
In series [7] the test system is MDCK cells. The series can be described thus: Lipid changes in MDCK cells (GlcCer, ceramide, diacylglycerol). It counts as cell-based, canine.
The subject of series [8] is acid ceramidase. The series can be described thus: Acid ceramidase of MDCK cell homogenate. It counts as biochemical, canine. The protocol:
(§3) Acid and neutral ceramidases were assayed under conditions like those above, but the medium contained 110 μM [1-^14C]decanoyl sphingosine (10^5 cpm) in 340 μM dioleoylphosphatidylcholine liposomes and 0.34 mg of MDCK cellular protein homogenate. […] After 60 min in the ultrasonic bath, 3 ml of C-M 2:1, carrier decanoic acid, and 0.6 ml of 0.9% saline were added and the lipids in the lower layer were separated by TLC with C-HOAc 9:1. The liberated decanoic acid was scraped off the glass plate and counted.

Series [9] deals with MDCK cells. The series can be described thus: MDCK cell growth (cellular protein per dish). The series is classed as cell-based, canine. The protocol: For the experiments with labeled thymidine, each 8.5 cm dish contained 500,000 Madin-Darby canine kidney (MDCK) cells in 8 ml of Dulbecco modified essential supplemented medium. […] The control cells were also incubated in the presence of BSA. The cells were washed with phosphate/saline and trichloroacetic acid, then scraped off the dishes, dissolved in alkali, and analyzed for protein and DNA incorporated tritium. [Methyl-^3H]thymidine (10 μCi) was added 4 h prior to harvesting.

Series [10] concerns Neutral sphingomyelinase (SMase). The series can be described thus: Neutral sphingomyelinase of MDCK cells. The series is classed as biochemical, canine. As for the experimental part: Acid and neutral SMase assays were based on the procedures of Gatt et al. (Gatt, S. et al., “Assay of Enzymes of Lipid Metabolism With Colored and Fluorescent Derivatives of Natural Lipids,” Meth. Enzymol., 72:351-375 (1981)), using liposomes containing NBD-SM dispersed like the labeled ceramide (10 μM substrate and 30 μM lecithin). […] Incubation was at 37° C. for 30 min in the ultrasonic bath, then the fluorescent product, NBD-ceramide, was isolated by partitioning the assay mixture with 0.45 ml 2-propanol, 1.5 ml heptane, and 0.2 ml water. After centrifugation, a trace of contaminating NBD-SM was removed from 0.9 ml of the upper layer by washing with 0.35 ml water. The upper layer was analyzed with a fluorometer (460 nm excitation, 515 nm emission).

Series [11] concerns Acid SMase. The series can be described thus: Acid sphingomyelinase of MDCK cells. The series is classed as biochemical, canine. As for the experimental part: Acid and neutral SMase assays were based on the procedures of Gatt et al. (Gatt, S. et al., “Assay of Enzymes of Lipid Metabolism With Colored and Fluorescent Derivatives of Natural Lipids,” Meth. Enzymol., 72:351-375 (1981)), using liposomes containing NBD-SM dispersed like the labeled ceramide (10 μM substrate and 30 μM lecithin). The assay medium for the neutral enzyme also contained 50 mM Tris-Cl^− (pH 7.4), 25 mM KCl, 5 mM MgCl2 and 0.29 mg of MDCK cell protein in a total volume of 0.25 ml. Incubation was at 37° C. for 30 min in the ultrasonic bath, then the fluorescent product, NBD-ceramide, was isolated by partitioning the assay mixture with 0.45 ml 2-propanol, 1.5 ml heptane, and 0.2 ml water. After centrifugation, a trace of contaminating NBD-SM was removed from 0.9 ml of the upper layer by washing with 0.35 ml water. The upper layer was analyzed with a fluorometer (460 nm excitation, 515 nm emission).
[…] The resultant ceramide was determined as above.

The subject of series [12] is neutral ceramidase. The series can be described thus: Neutral ceramidase of MDCK cell homogenate. It counts as biochemical, canine. As for the experimental part: as §3
The subject of series [13] is Ceramide synthase. The series can be described thus: Ceramide synthase of MDCK homogenate. The series is classed as biochemical, canine. As for the experimental part: Ceramide synthase was assayed with 1 μM [3-^3H]sphingosine (70,000 cpm, repurified by column chromatography), 0.2 mM stearoyl-CoA, 0.5 mM dithiothreitol, and ˜300 μg of MDCK homogenate protein in 25 mM phosphate-K^+ buffer, pH 7.4, in a total volume of 0.2 ml. The incubation (for 30 min) and TLC were carried out as above and the ceramide band was counted.

Series [14] concerns three of the tumor cell lines. The series can be described thus: Growth tests of chemotherapeutic agents in the Drug Evaluation Core Laboratory. The settings on record: range over three of the tumor cell lines. The series is classed as cell-based. As for the experimental part:
as §1, §2

“And” between values parts separate entries of the source, which are not always exact repeats. Equal entries are not always repeated. Marks after values point to notes of the source that are not given here.

As a reminder, the IC50 is the concentration at which inhibition is half-maximal. By Inhibition is commonly meant the change of the read-out against control, counted positive when it falls. In the case of `CCCCCCCCCCCCCCCC(=O)NC(CN1CCC1)C(O)c1ccccc1` (mixture of isomers) [BML-123], the IC50 in series [1], in [2] and in [3] was 2 µM each time. The “Inhibition at 5 μM” value in [4] was 15 ± 0.8^f %. Further, the “% Inhibition at 80 μM” value in series [4] is 86 ± 0.1^d %.
Regarding `CCCCCCCCCCCCCCCC(=O)N[C@H](CN1CCCC1)[C@H](O)c1ccc(Cl)cc1` [p-chloro-P4], the “σ + π” value in [5] was 0.94.
Regarding `CCCCCCCCCCCCCCCC(=O)NC(CN1CCCCC1)C(O)c1ccccc1` (mixture of isomers) [BML-115], the IC50 in series [6], in [1], in series [2] and in series [3] was 2 µM each time. In addition, the “Inhibition at 5 μM” value in series [4] is on record as 12.4%. In addition, the “% Inhibition at 80 μM” value in series [4] (80 µM) is 82 ± 0.3^b % and 84 ± 0.8^a %. Also, the “improvement of activity relative to PPMP” value in series [4] (calculated from inhibitions at 5 μM in Expt. f and relative purities) is on record as roughly 1.4 fold.
On to `CCCCCCCCCCCCCC=CC(O)C(CN1CCCC1)NC(=O)CCCCCCCCCCCCCCC` [IV-231B, D-threo-1-pyrrolidino-1-deoxyceramide], for which the “GlcCer in cells (TLC)” value in [7] (1 μM for 3 days) is recorded as “virtually no GlcCer was visible”; in series [7] (0.02 to 1 μM for 3 days), “great depletion of GlcCer”. In series [7] (0.02 to 1 μM for 3 days), the “ceramide accumulation (TLC)” value is reported as “no ceramide accumulation”. The “all the GSLs in cells (TLC)” value in [7] (5 days in 5 μM inhibitor) was “virtually undetectable”. Also, the ceramide concentration in [7] (depleted cells, 5 days in 5 μM inhibitor) was 13.9±0.2 μg/mg protein. The “Ceramidase pH 4.5, enzyme activity (% of control)” value in [8] (5 μM) is on record as 106 ± 3 % of control; in [8] (50 μM) it was 113 ± 8 % of control. Moreover, the “effect on MDCK cell growth” value is reported as “no inhibitory effect” in series [9] (20 μM for 1 day or 1 μM for 3 days) and “no slowing of growth” in series [9] (5 days in 5 μM inhibitor). The molecule also yielded a protein per dish in series [9] (5 days in 5 μM inhibitor, BSA complex) of 3.30 ± 0.04 mg. The “degree of inhibition of GlcCer synthase” value in series [4] (3 μM, inhibitor incorporated into the substrate liposomes) is 77±0.9%. Further, in [4], the “Inhibition at 5 μM” value is recorded as 87 ± 0.4^g %. Besides, the results for the “Sphingomyelinase pH 7.1, enzyme activity (% of control)” value in series [10] (5 μM) and in series [10] (50 μM) were 131 ± 3^b % of control and 120 ± 3^b % of control, respectively. In addition, the “Sphingomyelinase pH 4.5, enzyme activity (% of control)” value in [11] (5 μM) is recorded as 101 ± 7 % of control; in series [11] (50 μM), 112 ± 11 % of control. Further, the “Ceramidase pH 7.4, enzyme activity (% of control)” value in [12] (5 μM) is on record as 116 ± 20 % of control; in series [12] (50 μM), 112 ± 3 % of control. Besides, the “Ceramide Synthase, enzyme activity (% of control)” value in series [13] (5 μM) was 90 ± 8 % of control; in [13] (50 μM) it was 71 ± 18^a % of control.
`CCCCCCCCCCCCCCCC(=O)N[C@H](CN1CCCC1)[C@H](O)c1ccc(OC)cc1` [D-threo-p-methoxy-P4]: the “σ + π” value in [5] was −0.29.
Turning to `CCCCCCCCCCCCCCCC(=O)N[C@H](CN1CCCC1)[C@H](O)c1cccc(OC)c1` [m-methoxy-P4], the “σ + π” value in series [5] is on record as 0.10.
In [14], `COc1cc([C@@H]2c3cc4c(cc3[C@@H](O[C@@H]3O[C@@H]5CO[C@@H](C)O[C@H]5[C@H](O)[C@H]3O)[C@H]3COC(=O)[C@H]23)OCO4)cc(OC)c1O` [etoposide] showed a half-inhibitory concentration (IC50) of 0.1 to 1 µM.
On to `CCCCCCCCCCCCCCCC(=O)N[C@H](CN1CCCC1)[C@H](O)c1ccc(C)cc1` [p-methyl-P4], for which, in series [5], the “σ + π” value is listed as 0.39.
Regarding `O=c1[nH]cc(F)c(=O)[nH]1` [fluorouracil], the IC50 in series [14] lay within 0.07 to 0.2 µM.
On the same count and under the same terms, as for `CN(Cc1cnc2nc(N)nc(N)c2n1)c1ccc(C(=O)N[C@@H](CCC(=O)O)C(=O)O)cc1` [methotrexate], the figure is 0.03 to 0.2 µM.
Consider `CCCCCCCCCCCCCCCC(=O)NC(CN1CCCCC1)C(O)c1ccc(F)cc1` (mixture of isomers) [BML-118], for which the IC50 in series [6], in series [1] and in series [2] was 2 µM in each case. The “Inhibition at 5 μM” value in [4] is 8.3 ± 1.4^f %. In addition, the “% Inhibition at 80 μM” value in series [4] is 62 ± 0.4^b %.
